The results in this text go back to PMC12093056, “Mechanistic insights into the ATP-mediated and species-dependent inhibition of TrpRS by chuangxinmycin” (RSC Chemical Biology, 2025).

Assay [1] addresses T1, SaTrpRS (Staphylococcus aureus, UniProt P67594).
T1 construct: gene trpS; codon-optimised synthetic gene, C-terminal 6xHis tag (pET-28a), no tag cleavage told; E. coli BL21(DE3); dimer
In words: ATP consumption, Kinase-Glo luminescence. The class given is biochemical. The conditions noted are these: 2 μM ATP, 10 μM Trp, 40 mM MgCl2, 50 mM NH2OH instead of tRNA, pH 7.5, 37 °C, 1.5 h.

For assay [2], the target named is T2, EcTrpRS (Escherichia coli, UniProt P00954).
T2 construct: gene trpS; C-terminal 6xHis tag (pET-28a), no tag cleavage told; E. coli BL21(DE3); two chains in asymmetric unit
The assay can be described thus: ATP consumption, Kinase-Glo luminescence. The class given is biochemical. The conditions noted are these: 2 μM ATP, 10 μM Trp, 40 mM MgCl2, 50 mM NH2OH instead of tRNA, pH 7.5, 37 °C; Trp site. Background: Kinase-Glo reads ATP consumption through a luciferase reaction.

Assay [3] deals with T2, EcTrpRS. The assay can be described thus: X-ray crystal structure. Format: binding.
For assay [4], the target named is T1, SaTrpRS. In words: ATP consumption, Kinase-Glo luminescence. The class given is biochemical. The conditions noted are these: 2 μM ATP, 10 μM Trp, 40 mM MgCl2, 50 mM NH2OH instead of tRNA, pH 7.5, 37 °C; Trp site.
The target of assay [5] is T1, SaTrpRS. The assay can be described thus: X-ray crystal structure. Format: binding. The conditions noted are these: Trp site.

T1 sequence (P67594 whole entry): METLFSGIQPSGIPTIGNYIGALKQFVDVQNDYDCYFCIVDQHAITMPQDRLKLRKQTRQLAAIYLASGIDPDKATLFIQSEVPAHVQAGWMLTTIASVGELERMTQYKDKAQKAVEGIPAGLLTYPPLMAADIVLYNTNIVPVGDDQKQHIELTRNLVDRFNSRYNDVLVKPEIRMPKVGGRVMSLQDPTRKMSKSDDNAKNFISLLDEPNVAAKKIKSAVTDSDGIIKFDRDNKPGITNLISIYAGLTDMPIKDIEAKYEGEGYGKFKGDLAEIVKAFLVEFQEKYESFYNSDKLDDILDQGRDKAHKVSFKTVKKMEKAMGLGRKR

`Nc1ncnc2c1ncn2[C@@H]1O[C@H](COP(=O)(O)OP(=O)(O)OP(=O)(O)O)[C@@H](O)[C@H]1O` [ATP]: the “ATP consumption, Kinase-Glo luminescence” value in assay [1] is on record as “The activity of TrpRS was measured vis ATP hydrolysis using Kinase-Glo® kit”.

Consider `CC1c2c[nH]c3cccc(c23)SC1C(=O)O` (centres unmarked) [CXM, chuangxinmycin], for which, in assay [2], the inhibition entry was “Inhibition of EcTrpRS by CXM, dCXM, and mCXM, as measured by ATP hydrolysis assays”. For the same compound, the X-ray crystal structure entry in assay [3] (2.24 Å, open chain A, Trp site, also ternary with ATP and Mg2+ (1.92 and 2.15 Å)) was “Chain A exists in an open state and binds to a CXM molecule”.

For the compound `O=C(O)C1Cc2c[nH]c3cccc(c23)S1` (centres unmarked) [dCXM, 3-demethylchuangxinmycin], in assay [2], the inhibition result was “Inhibition of EcTrpRS by CXM, dCXM, and mCXM, as measured by ATP hydrolysis assays”. Moreover, in assay [3] (Trp site), the X-ray crystal structure result is “The complex structures of these analogues with EcTrpRS and SaTrpRS were solved”.

Take `CC1(C)c2c[nH]c3cccc(c23)S[C@H]1C(=O)O` [mCXM, 3-methylchuangxinmycin]: the inhibition entry is reported as “The inhibitory activity of mCXM against EcTrpRS is lower than that of CXM” in assay [2] and “mCXM exhibits stronger inhibition of SaTrpRS compared to EcTrpRS” in assay [4]. For the same compound, the X-ray crystal structure entry in assay [3] (Trp site) was “The complex structures of these analogues with EcTrpRS and SaTrpRS were solved”; in assay [5], “The complex structures of these analogues with EcTrpRS and SaTrpRS were solved”.

On to `N[C@@H](Cc1c[nH]c2ccccc12)C(=O)O` [tryptophan], for which the X-ray crystal structure result in assay [5] (2.32 Å) was “SaTrpRS in complex with Trp (SaTrpRS/Trp complex)”.

As to `Nc1ncnc2c1ncn2[C@@H]1O[C@H](COP(=O)(O)OC(=O)[C@@H](N)Cc2c[nH]c3ccccc23)[C@@H](O)[C@H]1O` [tryptophanyl-5′-AMP], in assay [3] (2.24 Å, endogenous, closed chain B, enzyme-bound reaction intermediate), the X-ray crystal structure entry is “chain B is in a closed state and binds to an endogenous tryptophanyl-5′-AMP (TrpAMP) molecule”.
